Reference: article PMC6964649, “Light-controllable dithienylethene-modified cyclic peptides: photoswitching the in vivo toxicity in zebrafish embryos” (Beilstein Journal of Organic Chemistry, 2020)
Starred links: 1 amine or outer side, 2 acyl side, 3 side chain; linkers in the order of their positions; H or OH if unused. Positions of bridges follow the written chain, without caps; N, C: chain ends. Non-standard residues stand in square brackets, D forms with d. Residues, ends and D or L forms follow the SMILES beside them. X2 = Cc1sc(C(=O)[C@@H]2CCCN2[*:2])cc1C1=C(c2cc(C(=O)[*:1])sc2C)CCC1; Leu(3R-OH) = CC(C)[C@@H](O)[C@H](N)C(=O)O; X1 = CCCCN([C@@H](CC(C)C)C(=O)[*:2])[*:1]; Orn = NCCC[C@H](N)C(=O)O

What was measured:
[1] = tested on: D. rerio embryos; assay: D. rerio embryotoxicity assay, direct application of ring-open photoform; type: in vivo, Danio rerio; settings: direct application of 1 or ring-open photoform, zebrafish embryos at 3 dpf, final DMSO 0.2%, ambient light, value ± STD; for LD50 (open)^1h: 1 h incubation, 12–15 or 18–20 embryos; for LD50 (open)^3h: 3 h incubation; for LD50 (open)^24h: 24 h incubation
Experimental: (§1) To establish the assay for screening the photoswitchable peptides, we first studied the toxicity of our prototype 2 by varying the assay conditions. The parent peptide GS 1 was used as a control. […] We measured the doses causing the death of 50% embryos (LD50). We tested two different assay variations: in one version, the LD50(open) was determined after direct application of 1 or of the ring-open form of 2. In the other variant, the photoswitchable peptide was applied in the ring-closed photoform in the darkness, its LD50(closed) was recorded, and then in situ illumination (“photoactivation”) was applied to switch into the ring-open photoform and obtain the respective LD50(opened) values (see Figure 2 for the study design and the killing curves).
(§2) Figure 2 Two versions of the D. rerio embryotoxicity assay for DAE-modified peptides: timelines, peptide photostates, ages of larvae, and definitions of the measured characteristics. (A) Direct application of the non-photoswitchable parent GS 1 or of the ring-open photoform of our prototype 2, and the corresponding killing curves for 1 (C, top, black) and 2 (C, bottom, red). (B) “Photoactivation” assay: initial application of the ring-closed photoform, incubation in darkness, followed by in situ photoconversion into the ring-open(ed) photoform, with the corresponding killing curves for 1 (D, top) and 2 (D, bottom, green for ring-closed, red for ring-open isomers). The latter panel illustrates the “phototherapeutic safety window” (green arrow) as the difference in toxicity between the ring-closed and the ring-open isomers upon photoactivation.
(§3) Each time, 12–15 or 18–20 zebrafish embryos at 3 dpf were treated by applying the corresponding peptide dissolved in dimethyl sulfoxide (final dimethyl sulfoxide concentration was 0.2%). Double-concentrated peptide stock solutions (64–512 µg/mL) were prepared by weighing lyophilized peptides, dissolving in 10% dimethyl sulfoxide and constructing two-fold dilution series with ten–eleven dilution steps. In the photoconversion experiments, in order to prevent spontaneous photoswitching of the ring-closed peptides by vis light, zebrafish embryos and peptides were kept in the dark before the first readout, and the vials were sealed to avoid evaporation of the embryonic medium (E3) at prolonged incubation times. After the first screen, without exchanging any solution, the vials with embryos and ring-closed photoforms were exposed to intense illumination for 10 min (LUMATEC Superlite 410 light source, λ = 570 nm, irradiance approximately 20 mW/cm^2). Mortality was then determined under ambient light conditions at 1 h and 24 h after the illumination procedure.

[2] = tested on: D. rerio embryos; assay: D. rerio embryotoxicity "photoactivation" assay (ring-closed photoform in darkness, then in situ photoconversion); type: in vivo, Danio rerio; settings: for LD50 (opened)^1h / LD50 (opened)^24h: after 24 h with ring-closed form in dark, in situ illumination 10 min, λ = 570 nm, approx. 20 mW/cm^2; for LD50 (opened)^1h: mortality 1 h after illumination, embryos 4 dpf; for LD50 (opened)^1h / LD50 (opened)^24h / LD50 (closed)^24h: value ± STD; for LD50 (opened)^24h: mortality 24 h after illumination, embryos 5 dpf at readout; for LD50(closed)^24h/LD50(open)^24h ratio: phototherapeutic safety window, ring-closed 24 h LD50 (dark) divided by ring-open 24 h LD50 (direct application); for LD50 (closed)^24h: ring-closed photoform applied to embryos at 3 dpf, 24 h in the dark, sealed vials, E3 medium, 0.2% DMSO
Experimental: as §1, §2, §3

[3] = observed water solubility and aggregation; type: physicochemical; settings: ring-open form; observation in words
Source text: We have also analyzed the correlation between the empirical low-pH hydrophobicity of the peptides (as assessed from the retention times in reversed-phase HPLC) and toxicity against zebrafish embryos. Independent on the photoisomeric state and the type of toxicity assay, decreasing polarity of the peptides is accompanied by an increase in toxicity against zebrafish embryos (compare Figure 3A and 3B). Within the different series of peptides (the series are marked with different colors in Figure 3 for clarity) we get almost linear toxicity–hydrophobicity correlations in most cases, and all the outliers are readily explainable.

Molecule	LD50 (open)^1h [1] [µg/mL]	LD50 (open)^3h [1] [µg/mL]	LD50 (open)^24h [1] [µg/mL]	LD50 (opened)^1h [2] [µg/mL]	LD50 (opened)^24h [2] [µg/mL]	LD50(closed)^24h/LD50(open)^24h ratio [2]	LD50 (closed)^24h [2] [µg/mL]	water solubility and aggregation [3]
CCCCN1C(=O)[C@@H](Cc2ccccc2)NC(=O)[C@H](CC(C)C)NC(=O)[C@H](CCCN)NC(=O)[C@H]([C@@H](C)CC)NC(=O)c2cc(c(C)s2)C2=C(CCC2)c2cc(sc2C)C(=O)[C@@H]2CCCN2C(=O)[C@H](CC(C)C)NC(=O)[C@H](CCCN)NC(=O)[C@H]([C@@H](C)CC)NC(=O)[C@@H]1CC(C)C [Peptide 11] (I[Orn]L[dF][X1]I[Orn]L; linker N-C via X2)	3.0 ± 1.8	2.4 ± 0.7	1.6 ± 0.1	4.0 ± 0.3	3.0 ± 1.0	2.8	4.4 ± 0.2	very low water solubility and tendency to aggregate
Cc1sc2cc1C1=C(CCC1)c1cc(sc1C)C(=O)[C@@H]1CCCN1C(=O)[C@H]([C@H](O)C(C)C)NC(=O)[C@H](CCCN)NC(=O)[C@H](C(C)C)NC(=O)[C@@H]1CCCN1C(=O)[C@@H](Cc1ccccc1)NC(=O)[C@H](C(C)C)NC(=O)[C@H](CCCN)NC(=O)[C@H](C(C)C)NC2=O [Peptide 14]	8.1 ± 2.0	6.2 ± 0.7	2.0 ± 0.0	9.1 ± 4.2	4.6 ± 2.0	25.2	50.4 ± 27.2	–
Cc1sc2cc1C1=C(CCC1)c1cc(sc1C)C(=O)[C@@H]1CCCN1C(=O)[C@H](C(C)C)NC(=O)[C@H](CCCN)NC(=O)[C@H]([C@H](O)C(C)C)NC(=O)[C@@H]1CCCN1C(=O)[C@@H](Cc1ccccc1)NC(=O)[C@H](C(C)C)NC(=O)[C@H](CCCN)NC(=O)[C@H]([C@H](O)C(C)C)NC2=O [Peptide 15] ([Leu(3R-OH)][Orn]V[dF]P[Leu(3R-OH)][Orn]V; linker N-C via X2)	36.5 ± 2.1	14.1 ± 6.0	7.2 ± 3.8	22.9 ± 0.2	7.2 ± 0.7	7.8	56.1 ± 12.2	–
Cc1sc2cc1C1=C(CCC1)c1cc(sc1C)C(=O)[C@@H]1CCCN1C(=O)[C@H](CC(C)C)NC(=O)[C@H](CCCCN)NC(=O)[C@H](C(C)C)NC(=O)[C@H](CCCCN)NC(=O)[C@H](CC(C)C)NC(=O)[C@@H]1CCCN1C(=O)[C@@H](Cc1ccccc1)NC(=O)[C@H](C(C)C)NC(=O)[C@H](CCCCN)NC(=O)[C@H](CC(C)C)NC(=O)[C@H](CCCCN)NC(=O)[C@H](C(C)C)NC2=O [Peptide 16] (VKLKV[dF]PLKVKL; linker N-C via X2)	3.1 ± 1.0	3.1 ± 1.0	1.6 ± 0.0	5.6 ± 0.5	5.2 ± 0.5	3.8	6.0 ± 0.1	–
Cc1sc2cc1C1=C(CCC1)c1cc(sc1C)C(=O)[C@@H]1CCCN1C(=O)[C@H](C(C)C)NC(=O)[C@H](CCCCN)NC(=O)[C@H](C(C)C)NC(=O)[C@@H](CCCCN)NC(=O)[C@H](CC(C)C)NC(=O)[C@@H]1CCCN1C(=O)[C@@H](Cc1ccccc1)NC(=O)[C@H](C(C)C)NC(=O)[C@H](CCCCN)NC(=O)[C@H](CC(C)C)NC(=O)[C@H](CCCCN)NC(=O)[C@H](C(C)C)NC2=O [Peptide 17] (VKLKV[dF]PL[dK]VKV; linker N-C via X2)	10.5 ± 5.8	10.5 ± 5.8	3.2 ± 0.2	9.9 ± 0.1	9.4 ± 0.7	3.1	9.9 ± 0.1	–
Cc1sc2cc1C1=C(CCC1)c1cc(sc1C)C(=O)[C@@H]1CCCN1C(=O)[C@H](C(C)C)NC(=O)[C@H](CCCCN)NC(=O)[C@H](C(C)C)NC(=O)[C@H](CC(C)C)NC(=O)[C@H](CCCCN)NC(=O)[C@@H]1CCCN1C(=O)[C@@H](Cc1ccccc1)NC(=O)[C@H](C(C)C)NC(=O)[C@H](CCCCN)NC(=O)[C@H](CC(C)C)NC(=O)[C@H](CCCCN)NC(=O)[C@H](C(C)C)NC2=O [Peptide 18] (VKLKV[dF]PKLVKV; linker N-C via X2)	0.9 ± 0.4	0.9 ± 0.4	0.4 ± 0.2	12.3 ± 1.5	12.3 ± 1.5	30.8	12.3 ± 1.5	–
DAE-OrnN3-OLfPVOL (bicyclic or more) [Peptide 20, "click"-chemistry connected homodimer of DAE-modified macrocycle (series v)]	3.7 ± 1.9	3.7 ± 1.9	1.5 ± 0.0	8.4 ± 3.3	3.5 ± 0.6	7.1	10.7 ± 0.1	–
